Test results taken from PMC8401550, “Structural Characterization of a Macrocyclic Peptide Modulator of the PD-1/PD-L1 Immune Checkpoint Axis” (Molecules, 2021).

Test system: PD-1/PD-L1 interaction, Jurkat cells overexpressing PD-1 with CHO-K1 cells overexpressing TCR activator and PD-L1
Assay: Cell-surface PD-L1/PD-1 immune checkpoint interaction assay (NFAT-luciferase reporter)
Assay type: cell-based
Details: control antibody; increase in luciferase reporter; fit of Hill equation; mean ± SD from three independent experiments
Procedure: CHO-K1 expressing the TCR activator and PD-L1 and Jurkat T cells carrying an NFAT-dependent luciferase gene and overexpressing PD-1 were obtained from Promega. The cells were cultured in RPMI 1640 medium supplemented with 10% FBS with hygromycin B (50 µg/mL) and G418 (250 µg/mL) at 37 °C with 5% CO2.
24 h before the experiment, the CHO-K1 cells were seeded on a 96-well plate in an amount of 10,000 cells/well. 2.5-fold serial dilutions of p104 were prepared in DMSO followed by 1000× dilution in the assay buffer (RPMI 1640, 1% FBS). The culture medium was replaced with the assay buffer containing 0.02–250 µM of p104. The Jurkat cells in the amount of 50,000 cells/well were added and co-cultured for 3 h in standard conditions. Luminescence was determined using Bio-Glo Assay reagent (Promega, Madison, WI, USA) following manufacturer protocol. Data were normalized at vehicle-treated control.

“Atezolizumab: FDA-approved therapeutic monoclonal antibody targeting PD-L1” was tested, and the EC50 was 3.4 ± 0.2 nM.
